# Test results reported in ChEMBL document CHEMBL5331122, “Structure-Activity Relationship Study of Antimicrobial Peptide PE2 Delivered Novel Linear Derivatives with Potential of Eradicating Biofilms and Low Incidence of Drug Resistance” (J Med Chem, 2023).
# Active and inactive are the calls of the source. The calls are words filed in the database; no cut-off is given here.
# Assays:
# Staphylococcus aureus [1] = test: Induction of membrane morphological changes in Staphylococcus aureus ATCC 25923 assessed as appearance of adherent bacterial cells at 4 times MIC measured at 0.5 to 2 hrs by SEM analysis; assay type: functional, organism-based; details: time 0.5-2 hrs
# Escherichia coli [2] = test: Antimicrobial activity against Escherichia coli ATCC 25922 assessed as reduction in survival bacterial growth in presence of chymotrypsin measured after 6 hrs; assay type: functional, organism-based
# Staphylococcus aureus [3] = test: Inhibition of biofilm formation in Staphylococcus aureus ATCC 25923 assessed as inhibition of biofilm formation at 1/2 times MIC incubated for 24 hrs by crystal violet staining based analysis; assay type: functional, organism-based
# Klebsiella pneumoniae [4] = test: Antibacterial activity against Klebsiella pneumoniae ATCC 700603 infected in BALB/c mouse pneumonia model at 5 to 10 mg/kg, ip measured at 4 to 12 hrs; assay type: functional, organism-based; details: dose 5-10 mg/kg, time 4-12 hrs
# Escherichia coli [5] = test: Antibacterial activity against rifampicin-resistant Escherichia coli ATCC 25922 assessed as reduction in bacterial growth incubated for 18 hrs by broth microdilution method; assay type: functional
# Escherichia coli [6] = test: Additive antibacterial activity against gentamycin-resistant Escherichia coli ATCC 25922 incubated for 18 hrs by checkerboard assay; assay type: functional, organism-based
# Cell membrane [7] = test: Induction of outer membrane permeabilization in Escherichia coli ATCC 25922 assessed as increase in fluorescence intensity at 1 times MIC measured for 12 hrs by NPN uptake assay; assay type: subcellular
# Klebsiella pneumoniae [8] = test: Antibacterial activity against Klebsiella pneumoniae ATCC 700603 infected in BALB/c mouse pneumonia model assessed as reduction in lung bacterial load at 5 to 10 mg/kg, ip measured at 4 to 12 hrs; assay type: functional, organism-based; details: dose 5-10 mg/kg, time 4-12 hrs
# Staphylococcus aureus [9] = test: Antimicrobial activity against methicillin-resistant Staphylococcus aureus ATCC 33591 assessed as inhibition of microbial growth incubated for 18 hrs by broth microdilution analysis; assay type: functional, organism-based; details: ATCC 33591, 18 h
# Klebsiella pneumoniae [10] = test: Antibacterial activity against Klebsiella pneumoniae ATCC 700603 infected in BALB/c mouse pneumonia model assessed as reduction in infiltration of inflammatory cells at 5 to 10 mg/kg, ip measured at 4 to 12 hrs by hematoxylin and eosin staining based analysis; assay type: functional, organism-based; details: dose 5-10 mg/kg, time 4-12 hrs
# Staphylococcus aureus [11] = test: Bactericidal activity against Staphylococcus aureus ATCC 25923 assessed as inhibition of bacterial growth at 1/2 times MIC measured upto 360 mins by time-kill assay; assay type: functional, organism-based
# Pseudomonas aeruginosa = test: Antibacterial activity against Pseudomonas aeruginosa ATCC 27853 assessed as bacterial growth inhibition incubated for 18 hrs by broth microdilution method; assay type: functional
# Escherichia coli [12] = test: Antibacterial activity against Escherichia coli ATCC 25922 assessed as fold increase in MIC in presence of ZnCl2; assay type: functional
# Escherichia coli [13] = test: Antibacterial activity against Escherichia coli ATCC 25922 assessed as fold increase in MIC in presence of NaCl; assay type: functional
# Escherichia coli [14] = test: Antimicrobial activity against Escherichia coli ATCC 25922 assessed as reduction in microbial growth measured for 18 hrs in presence of 64 microg/ml LPS; assay type: functional, organism-based
# Escherichia coli [15] = test: Inhibition of biofilm formation in Escherichia coli ATCC 25922 assessed as inhibition of biofilm formation incubated for 24 hrs by crystal violet staining based analysis; assay type: functional, organism-based
# Escherichia coli [16] = test: Antibacterial activity against Escherichia coli ATCC 25922 assessed as bacterial growth inhibition incubated for 18 hrs by broth microdilution method; assay type: functional
# Staphylococcus aureus [17] = test: Antibacterial activity against rifampicin-resistant Staphylococcus aureus ATCC 25923 assessed as reduction in bacterial growth incubated for 18 hrs by broth microdilution method; assay type: functional
# Erythrocyte = test: Hemolytic activity in mouse red blood cell assessed as hemolysis incubated for 1 hr; assay type: toxicity, cell-based; details: dose 4-256 µg/ml
# Escherichia coli [18] = test: Inhibition of biofilm formation in Escherichia coli ATCC 25922 assessed as inhibition of biofilm formation at 1 to 2 times MIC incubated for 24 hrs by crystal violet staining based analysis; assay type: functional, organism-based
# Escherichia coli [19] = test: Bactericidal activity against Escherichia coli ATCC 25922 assessed as inhibition of bacterial growth at 1/2 times MIC measured at 180 mins by time-kill assay; assay type: functional, organism-based
# Escherichia coli [20] = test: Antibacterial activity against gentamycin-resistant Escherichia coli ATCC 25922 assessed as reduction in bacterial growth incubated for 18 hrs by broth microdilution method; assay type: functional
# Cell membrane [21] = test: Induction of cell membrane damage in Escherichia coli ATCC 25922 at 2 times MIC after 0.5 to 2 hrs by propidium iodide staining based flow cytometer assay; assay type: subcellular; details: time 0.5-2 hrs
# Klebsiella pneumoniae [22] = test: Antibacterial activity against Klebsiella pneumoniae ATCC 700603 infected in BALB/c mouse pneumonia model assessed as alveolar expansion at 5 to 10 mg/kg, ip measured at 4 to 12 hrs by hematoxylin and eosin staining based analysis; assay type: functional, organism-based; details: dose 5-10 mg/kg, time 4-12 hrs
# Staphylococcus aureus [23] = test: Antibacterial activity against Staphylococcus aureus ATCC 25923 assessed as bacterial growth inhibition incubated for 18 hrs by broth microdilution method; assay type: functional
# Staphylococcus aureus [24] = test: Additive antibacterial activity against gentamycin-resistant Staphylococcus aureus ATCC 25923 incubated for 18 hrs in presence of gentamycin by checkerboard assay; assay type: functional, organism-based
# [25] = Acute toxicity in ip dosed Kunming mouse assessed as lethal dose measured upto 7 days; assay type: organism-based; details: Kunming, in vivo, time < 7 day
# Enterococcus faecalis = test: Antibacterial activity against Enterococcus faecalis ATCC 29212 assessed as bacterial growth inhibition incubated for 18 hrs by broth microdilution method; assay type: functional
# Escherichia coli [26] = test: Bactericidal activity against Escherichia coli ATCC 25922 assessed as inhibition of bacterial growth at 0.5 to 2 times MIC by time-kill assay; assay type: functional, organism-based; details: time <= 360.0 min, TDE = time-dependent effect
# Escherichia coli [27] = test: Bactericidal activity against Escherichia coli ATCC 25922 assessed as inhibition of bacterial growth at 1 times MIC measured at 180 mins by time-kill assay; assay type: functional, organism-based
# [28] = Acute toxicity in Kunming mouse assessed as survival rate at 20 mg/kg, ip measured for 7 days; assay type: organism-based; details: in vivo, 168 h, time 7 day
# Escherichia coli [29] = test: Antibacterial activity against Escherichia coli ATCC 25922 assessed as fold increase in MIC in presence of MgCl2; assay type: functional
# Escherichia coli [30] = test: Bactericidal activity against Escherichia coli ATCC 25922 assessed as inhibition of bacterial growth at 0.5 to 2 times MIC measured at 120 mins by time-kill assay; assay type: functional, organism-based
# Cell membrane [31] = test: Induction of outer membrane permeabilization in Escherichia coli ATCC 25922 assessed as increase in fluorescence intensity at 1 to 4 times MIC measured for 12 hrs by NPN uptake assay; assay type: subcellular
# Escherichia coli [32] = test: Additive antibacterial activity against Escherichia coli ATCC 25922 assessed as bacterial growth inhibition incubated for 18 hrs in presence of gentamycin by checkerboard assay; assay type: functional, organism-based
# Staphylococcus aureus [33] = test: Additive antibacterial activity against Staphylococcus aureus ATCC 25923 assessed as bacterial growth inhibition incubated for 18 hrs in presence of rifampicin by checkerboard assay; assay type: functional, organism-based
# Staphylococcus aureus [34] = test: Additive antibacterial activity against Staphylococcus aureus ATCC 25923 assessed as bacterial growth inhibition incubated for 18 hrs in presence of gentamycin by checkerboard assay; assay type: functional, organism-based
# Staphylococcus aureus [35] = test: Bactericidal activity against Staphylococcus aureus ATCC 25923 assessed as inhibition of bacterial growth at 0.5 to 2 times MIC measured at 120 mins by time-kill assay; assay type: functional, organism-based
# Escherichia coli [36] = test: Additive antibacterial activity against Escherichia coli ATCC 25922 assessed as bacterial growth inhibition incubated for 18 hrs in presence of rifampicin by checkerboard assay; assay type: functional, organism-based
SMILES,Activity (Staphylococcus aureus [1]),Activity (Escherichia coli [2]),inhibition (Staphylococcus aureus [3]),Activity (Cell membrane [7]),Activity (Staphylococcus aureus [11]),MIC (Pseudomonas aeruginosa) [µg/mL],fold change (FC) (Escherichia coli [12]),fold change (FC) (Escherichia coli [13]),Activity (Escherichia coli [14]),inhibition (Escherichia coli [15]),MIC (Escherichia coli [16]) [µg/mL],inhibition (Escherichia coli [18]),Activity (Escherichia coli [19]),Activity (Cell membrane [21]),MIC (Staphylococcus aureus [23]) [µg/mL],Activity (Staphylococcus aureus [24]),MIC (Enterococcus faecalis) [µg/mL],Activity (Escherichia coli [26]),fold change (FC) (Escherichia coli [29]),Activity (Cell membrane [31]),other results
CCCCCCC(=O)N[C@@H](CCN)C(=O)N[C@H](C(=O)N[C@@H](CCN)C(=O)N[C@H](Cc1ccccc1)C(=O)N[C@@H](CC(C)C)C(=O)N[C@@H](CCN)C(=O)N[C@@H](C(=O)N[C@@H](CC(C)C)C(=O)N[C@@H](Cc1ccc(O)cc1)C(N)=O)C(C)C)[C@@H](C)CC,Active,Active,Active,Active,inactive,4,<=2,<=2,Active,Dose-Dependent Effect,8,Active,Active,Active,8,Active,64,Tde,<=2,Active,Activity (Klebsiella pneumoniae [4]): Active; MIC (Escherichia coli [5]): < 8 µg/mL; Activity (Escherichia coli [6]): Active; Activity (Klebsiella pneumoniae [8]): Active; EC50 (Staphylococcus aureus [9]): 4.65 µg/mL; Activity (Klebsiella pneumoniae [10]): Active; MIC (Staphylococcus aureus [17]): < 8 µg/mL; HC10 (Erythrocyte): 512 µg/mL; MIC (Escherichia coli [20]): 4 µg/mL; Activity (Klebsiella pneumoniae [22]): Active; LD50 at 168 h [25]: 32 mg/kg; Activity (Escherichia coli [27]): Active; Activity [28]: Non-Toxic; Activity (Escherichia coli [30]): Active
CC[C@H](C)[C@@H]1NC(=O)[C@H](CCN)NC(=O)C[C@@H](C(C)C)OC(=O)[C@H]([C@@H](C)O)NC(=O)[C@H](CC(C)C)NC(=O)[C@@H](C(C)C)NC(=O)[C@H](CCN)NC(=O)[C@H](CC(C)C)NC(=O)[C@@H](Cc2ccccc2)NC(=O)[C@H](CCN)NC1=O,Active,Active,Active,Active,inactive,8,<=2,<=2,Active,Dose-Dependent Effect,8,Active,Active,Active,8,Active,16,Tde,<=2,Active,Activity (Escherichia coli [32]): Active; Activity (Staphylococcus aureus [33]): Active; Activity (Staphylococcus aureus [34]): Active; Activity (Staphylococcus aureus [35]): Active; Activity (Escherichia coli [36]): Active
